Laboratory results from patent US20200222474A1, “COMPOSITIONS AND METHODS FOR INCREASING PHYTOCHEMICAL BIOAVAILABLITY AND BIOACTIVITY” (North Carolina State University, priority 2017, published 2020).

Key:
L. acidophilus NCFM [1] = test: Growth of L. acidophilus NCFM on plant glycosides as single carbon source (OD600); format: cell-based, Lactobacillus acidophilus; details: verified by production of lactate and metabolite analysis
Description: (§1) For initial growth and gene expression studies, L. acidophilus NCFM was propagated three times in semi-defined medium (SDM) supplemented with either 1% or 0,5% (w/v) of the plant glycoside or carbohydrate (Table 1). For the RNA-seq analysis, cells were harvested by centrifugation (3,220×10 min, 25° C.) in the mid-exponential phase (OD600=0.6-0.8) and stored at −80° C. for subsequent RNA isolation. For the mass spectrometry metabolite analyses, 200 μt samples were taken at 0, 3, 6, 9, 12, and 24 hours of growth; cells were removed by centrifugation; and supernatants were stored at −80° C. for further analysis.
Phenotypic growth assays were performed using 1% (v/v) overnight cultures of L. acidophilus strains (Table 2) and other Lactobacillus species (Table 3) grown on SDM supplemented with 1% (w/v) glucose to inoculate 200 μL of SDM supplemented with 1% (w/v) of the examined carbohydrate (0.5% in the case of esculin) in 96-well microplate wells (Corning Costar, Corning, N.Y., USA) in duplicate or triplicate wells, respectively. The microplates were sealed with clear adhesive film, incubated at 37° C. in a Fluostar Optima microplate reader (BMG Labtech, Cary, N.C., USA), and the cell optical density (OD600) was monitored for 30 hours.
(§2) The growth of L. acidophilus NCFM was evaluated on twelve chemically diverse, nutritionally relevant and/or therapeutically active PGs 1; Table 1). FIG. 1A provides the structures and common sources of plant glycoside substrates described herein. The compounds that support growth of Lactobacillus acidophilus are in green. RI: β-D-Glcp; R2: Gentiobioside (β-D-Glcp-(1,6)-D-Glcp); R3: Rutinoside (α-L-Rhaf-(1,6)-D-Glcp). The graph in FIG. 1B depicts plant glycoside utilization analyzed by mass spectrometry and the growth as the maximum OD600. Due to the low solubility of polydatin, OD600 cannot be used as a growth metric and utilization of this compound is confirmed by the production of lactate as well as a high utilization level based on the metabolite analysis.

L. acidophilus NCFM [2] = test: Plant glycoside uptake and metabolite analysis of L. acidophilus NCFM culture supernatants by UHPLC-DAD-Q-TOF-MS; format: cell-based, Lactobacillus acidophilus
Description: as §1
Analysis of plant glycoside uptake from L. acidophilus NCFM culture supernatants using mass spectrometry. The supernatants of L. acidophilus NCFM cultures grown on amygdalin, arbutin, esculin or salicin as carbon sources were analyzed during 24 hours by ultra-high performance liquid chromatography-diode array detection-quadruple time of flight mass spectrometry (UHPLC-DAD-Q-TOF-MS). Samples were diluted 1:20 (v/v) with methanol and an injection volume of […] was used. Separation was carried out on an Agilent Poroshell 120 phenyl-hexyl column (2.1×150 mm, 2.7 μm) using the Agilent Infinity 1290 UHPLC system (Agilent Technologies, Santa Clara, Calif., USA) equipped with a UV/vis spectrum diode array detector. Separation was performed at 0.35 mL min-1., 60° C. with a linear gradient consisting of water (A) and acetonitrile (B) both buffered with 20 mM formic acid, starting at 10% B and increased to 100% in 15 min where it was held for 2 min, returned to 10% in 0.1 min and kept for 3 min. MS detection was performed on an Agilent 6550 iFunnel QTOF MS equipped with Agilent Dual Jet Stream electrospray ion source with the drying gas temperature of 160° C. and gas flow of 13 L min^−1, whereas the sheath gas temperature was 300° C. and flow was 16 L min-1. Ionization was conducted in ESI-mode with capillary voltage set to 4000 V and nozzle voltage to 500 V. Mass spectra were recorded as centroid data for m/z 85-1700 in MS mode with an acquisition rate of 10 spectra s^−1. To avoid carry-over, the needle seat was back-flushed for 15 s at 4 mL min-1 with each of: i) isopropanol: 0.2% ammonium hydroxide (w/v) in water (1:1 v/v); ii) acetonitrile with 2% formic acid (w/v); iii) water with 2% formic acid. Data was processed with the Agilent Mass Hunter Qualitative Analysis B.07.00 software package (Agilent Technologies) and molar concentrations were obtained from standard curves of the plant glycosides and their main metabolites. Targeted compound searches were performed using lists of previously identified compounds plus standard chemical modifications.

[3] = Solubility in growth experiments (observation); format: physicochemical; details: in growth medium; precluded OD600 nm as growth metric
Description: as §2

solubility [3]: poor solubility
SMILES: OC[C@H]1O[C@@H](Oc2cc(O)cc(/C=C/c3ccc(O)cc3)c2)[C@H](O)[C@@H](O)[C@@H]1O [Polydatin]
growth on compound (OD600 not usable) (L. acidophilus NCFM [1]): verified by production of lactate and metabolite analysis | aglycone / main metabolite identified in culture supernatant (L. acidophilus NCFM [2]; L. acidophilus NCFM growing on the glycoside, up to 24 h): resveratrol | Catabolism based on MS (L. acidophilus NCFM [2]; growth concentration 0.5% (w/v), qualitative: depletion of the plant glycoside and/or appearance of its metabolites): Yes
